# Results reported in PMC10878032 (Molecular cancer therapeutics, 2023).
# Where a SMILES comes first, the peptide text is derived from it. The star is where a group is joined. Cbz = O=C(OCc1ccccc1)*
# Columns and labels:
# [1] = tested on: MCF-7 breast cancer cells; test: immunoblot of substrate acetylation in MCF-7 cells; type: cell-based, human; conditions: SP-2-225 10 μmol/L, SAHA and SP-1–161 1 μmol/L, Western blot
# [2] = cited from earlier work
# bladder cancer = conditions: cited from earlier work
# MCF-7 cells = test: aggresome formation and immunostaining; type: cell-based, human; conditions: MCF-7, 24 hours; SP-2-225 10 μmol/L, MG-132 5 μmol/L
smiles,measurement,setting,value
"O=C(CCCCCCC(=O)Nc1ccccc1)NO [SAHA, suberoylanilide hydroxamic acid]",acetylation of histone H3,[1],increased the acetylation of α-tubulin and histone H3
same,acetylation of α-tubulin,[1],increased the acetylation of α-tubulin
Cc1[nH]c2ccccc2c1CCNCc1ccc(/C=C/C(=O)NO)cc1 [LBH589],direct cytotoxic effect,[2],direct cytotoxic effect even at nanomolar concentrations
O=C(CCCCCCC(=O)Nc1ccc([C@H]2O[C@@H](CSc3nc(-c4ccccc4)c(-c4ccccc4)o3)C[C@@H](c3ccc(CO)cc3)O2)cc1)NO [Tubacin],radiosensitization effect,bladder cancer,demonstrated radiosensitization effect
CC(C)C[C@@H](C=O)NC(=O)[C@H](CC(C)C)NC(=O)[C@H](CC(C)C)NC(=O)OCc1ccccc1 [MG-132] (Cbz-Leu-Leu-Leu-aldehyde),aggresome formation,MCF-7 cells,significant aggresome formation
